Values quoted from earlier work as cited in US7816516B2, “Conjugates of hydroxyalkyl starch and an active agent” (Fresenius Kabi Deutschland GmbH, priority 2001, dated 2010).

Tests used:
[1] = in vivo
[2] = isolated haemoglobin; dimers eliminated via the kidneys

Compound	portion of renal elimination [1]	biological half-life in the blood circulation [2]
CO[C@@]12[C@H](COC(N)=O)C3=C(C(=O)C(C)=C(N)C3=O)N1C[C@@H]1N[C@@H]12 [mitomycin C]	approximately 18%	
haemoglobin		approx. 1 hour
